Test results as given in patent EP4670717A1, “PYRROLIDINE-FUSED MYRTANOL DERIVATIVES AS INHIBITORS AND/OR DEGRADERS OF IDO1 UND USE THEREOF” (Max-Planck-Gesellschaft zur Förderung der Wissenschaften …, priority 2024, dated 2025).
Entries after “also recorded” stand apart in the source; their conditions may differ. Read-outs that look alike come from different tables or passages of the source.

Legend:
IDO1 [1] = molecular target: T1, IDO1 (Homo sapiens, UniProt P14902); experiment: IDO1 degradation in BxPC3 cells, IDO1 protein levels by immunoblotting; format: cell-based; settings: for Dmax at 0.1 µM: BXPC-3, BxPC3 cells; for Dmax at 0.1 µM / Dmax [%] (n): 50 ng/ml IFN-γ 24 h, washout, compound (100 nM) 24 h, maximum IDO1 degradation at 0.1 µM;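 for all read-outs here: IDO1 bands on Western blots detected with fluorescent dye-labelled secondary antibodies and quantified by band intensity, values are means of n biological replicates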
T1 construct: BxPC3 cells were seeded in phenol red-free RPMI 1640 medium; endogenous in cells; host or cells: BxPC3 cells stimulated with IFN-γ (50 ng/mL)
T1 sequence (P14902 whole entry): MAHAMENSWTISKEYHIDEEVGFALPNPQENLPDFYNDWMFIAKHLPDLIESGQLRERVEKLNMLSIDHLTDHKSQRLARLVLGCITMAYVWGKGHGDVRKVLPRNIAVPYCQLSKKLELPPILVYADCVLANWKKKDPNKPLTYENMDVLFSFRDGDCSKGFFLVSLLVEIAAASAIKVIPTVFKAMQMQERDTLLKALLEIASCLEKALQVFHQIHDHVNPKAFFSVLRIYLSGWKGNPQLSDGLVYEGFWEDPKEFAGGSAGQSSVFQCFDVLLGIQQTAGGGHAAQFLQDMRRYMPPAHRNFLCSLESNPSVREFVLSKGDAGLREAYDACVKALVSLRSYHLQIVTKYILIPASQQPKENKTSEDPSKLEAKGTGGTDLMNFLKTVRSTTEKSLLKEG
Protocol: To analyze IDO1 levels, IFN-γ-stimulated BxPC3 cells (50 ng/mL IFN-γ), U2OS cells (5 ng/mL IFN-γ), HEK^rhIDO1 (HEK293T cells electroporated with rhIDO1), SKOV3 and BT549 cells were treated with compounds for the indicated times (6 h to 24 h) followed by cell lysis (150 mM sodium chloride in 50 mM Tris (pH 8.0) and 1% NP-40 Alternative, protease and phosphatase inhibitors). Protein concentrations were determined (DC protein assay, Bio-Rad) followed by addition of 1 × SDS loading buffer and protein separation by a 10% SDS-PAGE. Separated protein samples were transferred to a polyvinylidene difluoride (PVDF) membrane using a wet-tank blotting system (Bio-Rad). IDO1 as well as vinculin as a loading were detected using the primary antibodies anti-IDO1 (ab211017, abcam or 14-9750-80, Thermo Fisher), anti-vinculin (V9131, Thermo Fisher) and anti-β-actin (ab8227, abcam) in 5 % milk in PBS-buffered saline with 0.05 % (v/v) Tween-20 (PBS-T). Primary antibodies were incubated at 4°C overnight and detected with IRDye-conjugated secondary antibodies (LI-COR Biosciences). IDO1 protein level in BT549 and SKOV3 cells was detected with HRP conjugated secondary antibody and SuperSignal™ West Dura Extended Duration Substrat (Thermo Fisher Scientific). Washing steps were performed with PBS-T. Protein bands were visualized by ChemiDoc™ MP (Bio-Rad) using a fluorescent readout. Band intensities were quantified using Image Lab software.
In order to differentiate between these different activities, we explored the modes of action of selected compounds in an in vitro assay employing recombinant human IDO1 (rhIDO1) monitoring enzymatic activity only, and we characterized the degradation efficiency by means of Western blotting, determining maximum degradation levels at 0.1µM (Dmax) and half maximum degradation concentration (DC50) (Table B-2). […] Data are mean values of n biological replicates. Dmax corresponds to maximum levels of IDO1 degradation at 0.1 µM.

[2] = molecular target: T2, recombinant human IDO1 (rhIDO1) (Homo sapiens, UniProt P14902); experiment: IDO1 enzymatic assay with recombinant protein, Kyn detection with p-DMAB; format: biochemical; settings: pre-incubated with compounds at 37°C for 40 min; for IC50: determined if inhibition at 59 µM was higher than 50%, read-out: rhIDO1 enzymatic activity IC50 ± SD
T2 construct: Full-length rhIDO protein (1 µM) in 50 mM potassium phosphate buffer; GST (cleaved yes); made in house; host or cells: E. coli
T2 sequence (P14902 whole entry): as above
From the text: Reduction of the kynurenine level in the cell-based model employed for initial SAR exploration can be due to inhibition of enzymatic activity, degradation of IDO1, or both (Table B-2). In order to differentiate between these different activities, we explored the modes of action of selected compounds in an in vitro assay employing recombinant human IDO1 (rhIDO1) monitoring enzymatic activity only, and we characterized the degradation efficiency by means of Western blotting, determining maximum degradation levels at 0.1µM (Dmax) and half maximum degradation concentration (DC50) (Table B-2). Table B-2 in vitro inhibition and degradation of IDO1 by selected compounds. […] Data are mean values ± SD (n = 4, except for compounds 1, 11, and 19 (n=2)). […] Data are mean values of n biological replicates. Dmax corresponds to maximum levels of IDO1 degradation at 0.1 µM.
Full-length rhIDO protein (1 µM) in 50 mM potassium phosphate buffer (50 mM KH2PO4 and 50 mM K2HPO4, pH 6.5) was incubated with the respective compounds for 40 min at 37 °C prior to the addition of 10 mM ascorbic acid, 10 µM methylene blue, 2 mM Trp and 100 µg/mL catalase (Sigma-Aldrich, C100). Samples were incubated for 60 min followed by the addition of trichloroacetic acid to a final concentration of 7 % and further incubation for 30 min at 37 °C. Kyn levels were detected by the addition of an equal volume of 2 % (w/v) p-DMAB in acetic acid and absorbance was measured at 492 nm and 650 nm as a background control. Values are presented relative to the DMSO control. Dose-response curves and IC50 values were generated and fitted with GraphPad Prism 6.0 (GraphPad software, USA) using four-parameter variable slope non-linear regression curve fit.

IDO1 [3] = molecular target: T1, IDO1; experiment: Kyn assay in BxPC-3 cells (Kyn levels after IFN-γ and Trp); format: cell-based; settings: for activity in the cell-based kynurenine assay: result in words;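 for all read-outs here: kyn levels expressed relative to DMSO-treated control cells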
Protocol: BxPC3 cells were seeded in phenol red-free RPMI 1640 medium in 1536-well or 384-well plates (Greiner #782086, Corning #3770) 24 h prior to the addition of compounds, IFN-γ (50 ng/mL, PeproTech) and L-Trp (380 µM, Sigmal-Aldrich). After 48 h of incubation, first cell viability was accessed by the addition of Hoechst-33342. Afterwards, trichloroacetic acid (TCA, Sigma-Aldrich) was added to a final concentration of 7 % and incubated for 10 min prior to a centrifugation step of 10 min at 1620 × g. Kyn levels were determined by means of the Kyn sensor^7 at a final concentration of 17.5 µM in sensor buffer (50 mM H3PO4 and 120 mM NaCl (pH=1)). Fluorescence intensity (excitation: 535 nm, emission: 595 nm) was measured using a Spectramax Paradigm reader (Molecular Devices). Data were normalized to the values for cells that were treated with DMSO.
For the manual assay, BxPC3 or SKOV3 cells were seeded in clear 96-well or 384-well plates, respectively, 24 h prior to compound treatment and IFN-γ (50 or 5 ng/mL, respectively) and L-Trp (380 µM) addition as described before.^7 48 h after treatment, TCA was added and Kyn levels were detected by means of 2 % w/v of p-DMAB (Ehrlich reagent) in acetic acid as described by Braun et al^29. The absorbance of the Ehrlich reagent was detected at 492 nm and at 650 nm as background control was measured on Spark® multimode microplate plate reader (Tecan, Austria). Kyn levels were determined by subtracting the absorbance value at 650 nm and presented relative to the DMSO control. Dose-response curves and IC50 values were generated and fitted with GraphPad Prism 6.0 (GraphPad software, USA) using four-parameter variable slope non-linear regression curve fit.
Cells were incubated with IFN-γ, Trp and the compounds for 48 h prior to detection of Kyn levels.

apo-IDO1 = molecular target: T3, apo-IDO1 (Homo sapiens, UniProt P14902); experiment: Pulse-chase ubiquitination assay of apo-IDO1 by CRL2^KLHDC3; format: biochemical; settings: apo-IDO1 incubated with compounds (30 µM) for 90 min at 37°C; Fig. 3j
T3 construct: For the ubiquitination assays, IDO1 (residues 5-C) was cloned into a pRSF Duet based vector; His-TEV (N); made in house; host or cells: IDO1: host not restated ('purified as described above', which points to E. coli); KLHDC3-EloB/C: Hi5 insect cells
T3 sequence (P14902 5-403 limits assumed): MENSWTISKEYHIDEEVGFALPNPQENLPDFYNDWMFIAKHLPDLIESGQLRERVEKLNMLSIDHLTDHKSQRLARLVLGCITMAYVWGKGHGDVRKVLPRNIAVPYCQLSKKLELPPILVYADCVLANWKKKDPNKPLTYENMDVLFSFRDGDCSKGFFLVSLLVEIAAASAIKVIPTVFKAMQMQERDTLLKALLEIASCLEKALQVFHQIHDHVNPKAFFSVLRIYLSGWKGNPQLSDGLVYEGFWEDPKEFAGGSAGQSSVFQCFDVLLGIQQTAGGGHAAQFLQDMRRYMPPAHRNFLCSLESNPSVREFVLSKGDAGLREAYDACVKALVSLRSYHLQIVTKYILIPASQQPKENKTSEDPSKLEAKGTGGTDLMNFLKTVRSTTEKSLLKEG

[4] = BxPC-3 cells incubated with IFN-γ, Trp and the compounds for 48 h, read-out: Kyn assay IC50 ± SD

SMILES	Dmax at 0.1 µM (IDO1 [1])	Dmax [%] (n) (IDO1 [1]; BxPC3 cells)	inhibition at 59 µM ([2]; in vitro inhibition at 59 uM)	IC50 (IDO1 [3]; [4])	activity in the cell-based kynurenine assay (IDO1 [3])	IDO1 ubiquitination by CRL2^KLHDC3 (apo-IDO1)	DC50 ± SD [nM] (IDO1 [1]; half-maximal degradation concentration, BxPC3 cells, immunoblotting)	IC50 (IDO1 [3]; read-out: IC50 value in the Kyn assay, Kyn assay)	IC50 (IDO1 [3]; read-out: Kyn assay IC50 ± SD, BxPC-3 cells incubated with IFN-γ, Trp and the compounds for 48 h)	IC50 [2]	rhIDO1 enzymatic activity Inhibition [%] ([2]; in vitro inhibition at 59 uM)	fold more potent in the Kyn assay than compound 1 (IDO1 [3]; relative to compound 1)
CC(C)(C)c1ccc(S(=O)(=O)N2C[C@H]3C[C@H]4C[C@H](C4(C)C)[C@@]3(COC(=O)Nc3ccc(I)cc3)C2)c(Br)c1 [compound 56, ((3aS,4R,6R,7aS)-2-((2-bromo-4-(tert-butyl)phenyl)sulfonyl)-5,5-dimethyloctahydro-3aH-4,6-methanoisoindol-3a-yl)methyl (4-iodophenyl)carbamate]	55 to 59%	56 ± 4 (3) %	12 ± 7%	< 200 nM	–	–	–	–	–	–	–	–
Cc1cc(C(C)(C)C)ccc1S(=O)(=O)N1C[C@H]2C[C@H]3C[C@H](C3(C)C)[C@@]2(COC(=O)Nc2ccc(I)cc2)C1 [compound 52, ((3aS,4R,6R,7aS)-2-((4-(tert-butyl)-2-methylphenyl)sulfonyl)-5,5-dimethyloctahydro-3aH-4,6-methanoisoindol-3a-yl)methyl (4-iodophenyl)carbamate]	> 60%	65 ± 10(14) %	48 ± 6%	< 200 nM	low nanomolar range	–	–	–	–	–	–	–
C#Cc1ccc(NC(=O)OC[C@]23CN(S(=O)(=O)c4ccc(C(C)(C)C)cc4C)C[C@H]2C[C@H]2C[C@@H]3C2(C)C)cc1 [compound 71, ((3aS,4R,6R,7aS)-2-((4-(tert-butyl)-2-methylphenyl)sulfonyl)-5,5-dimethylocta-hydro-3aH-4,6-methanoisoindol-3a-yl)methyl (4-ethynylphenyl)carbamate]	74 ± 13%	–	30 ± 5%	–	–	ubiquitinated	–	–	–	–	–	–
CC(C)(C)c1ccc(S(=O)(=O)N2C[C@H]3C[C@H]4C[C@H](C4(C)C)[C@@]3(COC(=O)Nc3ccc(I)cc3)C2)c(C2CC2)c1 [compound 54, ((3aS,4R,6R,7aS)-2-((4-(tert-butyl)-2-cyclopropylphenyl)sulfonyl)-5,5-dimethyl-octahydro-3aH-4,6-methanoisoindol-3a-yl)methyl (4-iodophenyl)carbamate]	55 to 59%	55 ± 4 (3) %	35 ± 2%	< 200 nM	–	–	–	–	–	–	–	–
C#Cc1ccc(NC(=O)OC[C@]23CN(S(=O)(=O)c4ccc(C(C)(C)C)cc4)C[C@H]2C[C@H]2C[C@@H]3C2(C)C)cc1 [compound 19]	> 60%	62 ± 10 (5) %	49 ± 0.6%	< 200 nM	low nanomolar range	–	–	–	–	–	–	–
C#Cc1ccc(NC(=O)OC[C@]23CN(S(=O)(=O)c4ccc(C(C)(C)C)cc4CC)C[C@H]2C[C@H]2C[C@@H]3C2(C)C)cc1 [compound 72, ((3aS,4R,6R,7aS)-2-((4-(tert-butyl)-2-ethylphenyl)sulfonyl)-5,5-dimethylocta-hydro-3aH-4,6-methanoisoindol-3a-yl)methyl(4-ethynylphenyl) carbamate]	–	75%	62 ± 5%	–	–	–	low nanomolar range	11 nM	< 200 nM	–	–	–
Cc1cc(C(C)(C)C(=O)O)ccc1S(=O)(=O)N1C[C@H]2C[C@H]3C[C@H](C3(C)C)[C@@]2(COC(=O)Nc2ccc(I)cc2)C1 [compound 70, 2-(4-(((3aS,4R,6R,7aS)-3a-((((4-iodophenyl)carbamoyl)oxy)methyl)-5,5-dimethyloctahydro-2H-4,6-methanoisoindol-2-yl)sulfonyl)-3-methylphenyl)-2-methylpropanoic acid]	18 ± 19%	–	62 ± 1%	< 200 nM	–	–	–	–	–	110 ± 20 nM	–	–
CC(C)(CC(=O)O)c1ccc(S(=O)(=O)N2C[C@H]3C[C@H]4C[C@H](C4(C)C)[C@@]3(COC(=O)Nc3ccc(I)cc3)C2)cc1 [compound 63, 3-(4-(((3aS,4R,6R,7aS)-3a-((((4-iodophenyl)carbamoyl)oxy)methyl)-5,5-dimethyloctahydro-2H-4,6-methanoisoindol-2-yl)sulfonyl)phenyl)-3-methylbutanoic acid]	36 to 46%	36 ± 2 (3) %	67 ± 6%	< 200 nM	–	–	–	–	–	1900 ± 500 nM	–	–
CC(C)(C)c1ccc(S(=O)(=O)N2C[C@H]3C[C@H]4C[C@H](C4(C)C)[C@@]3(COC(=O)Nc3ccc(I)cc3)C2)cc1 [compound 11, ((3aS,4R,6R,7aS)-2-((4-(tert-butyl)phenyl)sulfonyl)-5,5-dimethyloctahydro-3aH-4,6-methanoisoindol-3a-yl)methyl (4-iodophenyl)carbamate]	37%	–	–	< 200 nM	low nanomolar range	–	–	–	–	–	not active; also recorded: inactive	7 fold
CC(C)(C(=O)O)c1ccc(S(=O)(=O)N2C[C@H]3C[C@H]4C[C@H](C4(C)C)[C@@]3(COC(=O)Nc3ccc(I)cc3)C2)c(Cl)c1 [compound 69, 2-(3-chloro-4-(((3aS,4R,6R,7aS)-3a-((((4-iodophenyl)carbamoyl)oxy)methyl)-5,5-dimethyloctahydro-2H-4,6-methanoisoindol-2-yl)sulfonyl)phenyl)-2-methylpropanoic acid]	20 ± 12%	–	55 ± 2%	< 200 nM	–	–	–	–	–	270 ± 20 nM	–	–
C#Cc1ccc(NC(=O)OC[C@]23CN(S(=O)(=O)c4ccc(C(C)(C)C(=O)O)cc4)C[C@H]2C[C@H]2C[C@@H]3C2(C)C)cc1 [compound 74, 2-(4-(((3aS,4R,6R,7aS)-3a-((((4-ethynylphenyl)carbamoyl)oxy)methyl)-5,5-dimethyloctahydro-2H-4,6-methanoisoindol-2-yl)sulfonyl)phenyl)-2-methylpropanoic acid]	54 ± 8%	–	78 ± 3%	< 200 nM	low nanomolar range	–	–	–	–	310 ± 60 nM	–	–
